# Assay results from ChEMBL document CHEMBL4342483, “Codrug Approach for the Potential Treatment of EML4-ALK Positive Lung Cancer” (ACS Med Chem Lett, 2020).
# The source made the active and inactive calls. No cut-off for these calls is given here.
# What was measured:
# [1] = Prodrug conversion in phosphate buffer at pH 7.4 and d6-DMSO (1:1) assessed as rate constant for release of active compound mimetics by kinetic time-course NMR method; format: ADME
# [2] = Prodrug conversion in phosphate buffer at pH 6.4 and d6-DMSO (1:1) assessed as rate constant for release of active compound mimetics by kinetic time-course NMR method; format: ADME
# [3] = Half life in phosphate buffer at pH 6.4 and d6-DMSO (1:1) by kinetic time-course NMR method; format: physicochemical; conditions: phosphate buffer and d6-DMSO (1:1)
# [4] = Half life in phosphate buffer at pH 6.8 and d6-DMSO (1:1) by kinetic time-course NMR method; format: physicochemical; conditions: phosphate buffer and d6-DMSO (1:1)
# [5] = Half life in phosphate buffer at pH 7.4 and d6-DMSO (1:1) by kinetic time-course NMR method; format: physicochemical; conditions: phosphate buffer and d6-DMSO (1:1)
# [6] = Prodrug conversion in phosphate buffer at pH 6.8 and d6-DMSO (1:1) assessed as rate constant for release of active compound mimetics by kinetic time-course NMR method; format: ADME
# [7] = Hydrolytic stability in phosphate buffer and DMSO supplemented with 4% bovine serum albumin assessed as rate constant at pH 6.5 by HPLC analysis
# [8] = Drug degradation in rat plasma assessed as compound hydrolysis with zero order rate constant; format: ADME, cell-free
# [9] = Half life in phosphate buffer and DMSO supplemented with 4% bovine serum albumin at pH 6.5 by HPLC analysis; format: physicochemical; conditions: phosphate buffer and DMSO with 4% bovine serum albumin
# [10] = Hydrolytic stability in phosphate buffer and DMSO supplemented with 4% bovine serum albumin assessed as rate constant at pH 7.4 by HPLC analysis
# [11] = Half life in phosphate buffer and DMSO supplemented with 4% bovine serum albumin at pH 7.4 by HPLC analysis; format: physicochemical; conditions: phosphate buffer and DMSO with 4% bovine serum albumin
# [12] = Half life in rat plasma; format: ADME, cell-free
# [13] = system: A549; experiment: Synergistic growth inhibition of ALK-negative human A549 cells assessed as combination index at compound:ceritinib concentration ratio of 1:1 and fractional effect of 0.25 in presence of ceritinib by Chou-Talalay method; format: functional
# [14] = system: A549; experiment: Cytotoxicity against ALK-negative human A549 cells harboring wild type PI3KCA and CDKN2A and KRAS mutations assessed as cell growth inhibition measured after 72 hrs by MTT assay; format: functional; conditions: A549, 72 h
# [15] = system: A549; experiment: Synergistic growth inhibition of ALK-negative human A549 cells assessed as combination index at compound:ceritinib concentration ratio of 1:1 and fractional effect of 0.5 in presence of ceritinib by Chou-Talalay method; format: functional
# [16] = Synergistic growth inhibition of EML4-ALK-positive human CCL185IG cells assessed as combination index at compound:ceritinib concentration ratio of 1:1 and fractional effect of 0.5 in presence of ceritinib by Chou-Talalay method; format: functional
# [17] = system: A549; experiment: Cytotoxicity against ALK-negative human A549 cells assessed as cell growth inhibition by Chou-Talalay method; format: functional
# [18] = Synergistic growth inhibition of EML4-ALK-positive human CCL185IG cells assessed as combination index at compound:ceritinib concentration ratio of 1:1 and fractional effect of 0.25 in presence of ceritinib by Chou-Talalay method; format: functional
# [19] = Cytotoxicity against EML4-ALK-positive human CCL185IG cells harboring wild type PI3KCA and CDKN2A and KRAS mutations assessed as cell growth inhibition measured after 72 hrs by MTT assay; format: functional
# [20] = Synergistic growth inhibition of EML4-ALK-positive human CCL185IG cells assessed as combination index at compound:ceritinib concentration ratio of 1:1 and fractional effect of 0.96 in presence of ceritinib by Chou-Talalay method; format: functional
# [21] = system: A549; experiment: Synergistic growth inhibition of ALK-negative human A549 cells assessed as combination index at compound:ceritinib concentration ratio of 1:1 and fractional effect of 0.76 in presence of ceritinib by Chou-Talalay method; format: functional
# [22] = system: A549; experiment: Synergistic growth inhibition of ALK-negative human A549 cells assessed as combination index at compound:ceritinib concentration ratio of 1:1 and fractional effect of 0.96 in presence of ceritinib by Chou-Talalay method; format: functional
# [23] = Synergistic growth inhibition of EML4-ALK-positive human CCL185IG cells assessed as combination index at compound:ceritinib concentration ratio of 1:1 and fractional effect of 0.76 in presence of ceritinib by Chou-Talalay method; format: functional
# [24] = Cytotoxicity against EML4-ALK-positive human CCL185IG cells assessed as cell growth inhibition by Chou-Talalay method; format: functional
# [25] = Drug degradation in rat plasma assessed as compound hydrolysis with first order rate constant; format: ADME, cell-free
# [26] = target: ALK tyrosine kinase receptor (Homo sapiens) (UniProt Q9UM73); conditions: 500 nM
# ALK tyrosine kinase receptor (Homo sapiens), sequence (Q9UM73 19-1620 limits assumed): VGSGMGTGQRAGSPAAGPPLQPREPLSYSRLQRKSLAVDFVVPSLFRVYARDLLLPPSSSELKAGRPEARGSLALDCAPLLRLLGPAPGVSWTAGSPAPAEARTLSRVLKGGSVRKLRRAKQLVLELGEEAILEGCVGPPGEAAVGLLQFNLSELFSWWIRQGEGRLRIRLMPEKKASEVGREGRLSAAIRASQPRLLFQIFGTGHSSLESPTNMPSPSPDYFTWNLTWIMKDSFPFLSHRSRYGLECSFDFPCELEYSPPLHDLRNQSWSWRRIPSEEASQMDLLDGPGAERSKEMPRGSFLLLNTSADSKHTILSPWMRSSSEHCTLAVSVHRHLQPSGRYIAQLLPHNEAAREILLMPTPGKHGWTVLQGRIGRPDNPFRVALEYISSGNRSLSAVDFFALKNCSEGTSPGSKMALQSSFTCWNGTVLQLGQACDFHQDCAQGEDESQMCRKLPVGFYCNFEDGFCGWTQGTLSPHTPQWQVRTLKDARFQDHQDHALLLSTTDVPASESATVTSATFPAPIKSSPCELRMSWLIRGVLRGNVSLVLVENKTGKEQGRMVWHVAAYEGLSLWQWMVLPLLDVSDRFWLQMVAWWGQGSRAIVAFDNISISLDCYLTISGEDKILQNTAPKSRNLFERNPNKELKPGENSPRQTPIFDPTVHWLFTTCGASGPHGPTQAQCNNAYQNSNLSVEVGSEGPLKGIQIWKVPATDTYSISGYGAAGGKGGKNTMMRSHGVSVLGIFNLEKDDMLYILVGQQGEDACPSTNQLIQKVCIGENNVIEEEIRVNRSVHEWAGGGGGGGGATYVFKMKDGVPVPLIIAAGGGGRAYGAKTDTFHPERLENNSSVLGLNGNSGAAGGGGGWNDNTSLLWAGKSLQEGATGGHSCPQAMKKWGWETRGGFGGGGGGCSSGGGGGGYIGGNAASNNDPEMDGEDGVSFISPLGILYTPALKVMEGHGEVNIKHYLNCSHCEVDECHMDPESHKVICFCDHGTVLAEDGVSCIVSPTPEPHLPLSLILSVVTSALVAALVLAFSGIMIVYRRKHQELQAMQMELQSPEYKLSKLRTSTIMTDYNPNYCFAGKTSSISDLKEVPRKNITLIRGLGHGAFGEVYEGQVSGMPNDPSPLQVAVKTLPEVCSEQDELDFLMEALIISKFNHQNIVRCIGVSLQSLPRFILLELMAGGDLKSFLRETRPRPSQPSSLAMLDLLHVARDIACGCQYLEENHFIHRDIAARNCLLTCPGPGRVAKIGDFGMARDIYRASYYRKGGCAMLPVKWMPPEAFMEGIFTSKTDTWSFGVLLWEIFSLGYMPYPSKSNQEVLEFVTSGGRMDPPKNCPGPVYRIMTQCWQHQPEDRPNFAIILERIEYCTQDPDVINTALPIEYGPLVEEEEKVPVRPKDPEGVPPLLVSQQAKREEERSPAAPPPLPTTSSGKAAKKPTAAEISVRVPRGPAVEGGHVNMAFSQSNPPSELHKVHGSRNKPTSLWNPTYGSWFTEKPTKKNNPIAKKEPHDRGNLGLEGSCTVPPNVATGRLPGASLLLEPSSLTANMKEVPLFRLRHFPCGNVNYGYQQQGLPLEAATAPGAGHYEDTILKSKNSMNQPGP
# Description: Inhibition of ALK-mediated STAT3 phosphorylation in EML4-ALK-positive human CCL185IG cells at 500 nM measured after 24 hrs in presence of pictilisib by Western blot analysis
# [27] = target: ALK tyrosine kinase receptor (Homo sapiens) (UniProt Q9UM73); conditions: 500 nM; remark: listed apart in the source
# Description: Inhibition of ALK-mediated STAT3 phosphorylation in EML4-ALK-positive human CCL185IG cells at 500 nM measured after 24 hrs by Western blot analysis
Compound,K [7] [h⁻¹],half-life [9] [h],K [10] [h⁻¹],half-life [11] [h],half-life [12] [h],GI50 [14] [nM],D50 [17] [µM],GI50 [19] [nM],D50 [24] [µM],K [25] [min⁻¹],also measured
CC(OC(=O)C[C@H](N)C(=O)n1ncc2cc(Br)ccc21)OC(=O)N1CCC(c2ccccc2)CC1 (some centres not stated),,,,,,,,,,,K [1]: 1.37 h⁻¹; K [2]: 0.22 h⁻¹; half-life [3]: 4.64 h; half-life [4]: 0.7 h; half-life [5]: 0.39 h; K [6]: 0.84 h⁻¹
Cc1cc(Nc2ncc(Cl)c(Nc3ccccc3S(=O)(=O)C(C)C)n2)c(OC(C)C)cc1C1CCN(C(=O)OC(C)OC(=O)C[C@H](N)C(=O)n2ncc3c(-c4nc(N5CCOCC5)c5sc(CN6CCN(S(C)(=O)=O)CC6)cc5n4)cccc32)CC1 (some centres not stated),0.036,19.3,0.094,7.4,0.967,,,,,,K [8]: 0.069 µM/s
CS(=O)(=O)N1CCN(Cc2cc3nc(-c4cccc5[nH]ncc45)nc(N4CCOCC4)c3s2)CC1 [PICTILISIB],,,,,,1220,1.22,1180,1.12,,CI [13]: 0.95; CI [15]: 0.72; CI [16]: 0.37; CI [18]: 0.52; CI [20]: 0.24; CI [21]: 0.55; CI [22]: 0.35; CI [23]: 0.3
Cc1cc(Nc2ncc(Cl)c(Nc3ccccc3S(=O)(=O)C(C)C)n2)c(OC(C)C)cc1C1CCN(C(=O)OC(C)OC(=O)[C@@H](N)CC(=O)n2ncc3c(-c4nc(N5CCOCC5)c5sc(CN6CCN(S(C)(=O)=O)CC6)cc5n4)cccc32)CC1 (some centres not stated),0.02,34.7,0.036,19.3,0.633,,,,,0.018,
Cc1cc(Nc2ncc(Cl)c(Nc3ccccc3S(=O)(=O)C(C)C)n2)c(OC(C)C)cc1C1CCNCC1 [CERITINIB],,,,,,845,0.85,565,0.57,,inhibition [26]: Active; inhibition [27]: Active
Cc1cc(Nc2ncc(Cl)c(Nc3ccccc3S(=O)(=O)C(C)C)n2)c(OC(C)C)cc1C1CCN(C(=O)OC(C)OC(=O)CC(N)CC(=O)n2ncc3c(-c4nc(N5CCOCC5)c5sc(CN6CCN(S(C)(=O)=O)CC6)cc5n4)cccc32)CC1 (configuration not stated),0.058,12,0.091,7.6,1.15,,,,,0.01,
